Laboratory results taken from US20230111310A1, “CARBOXYLIC ACID DERIVATIVE-SUBSTITUTED IMINO ARYL COMPOUND, PREPARATION METHOD THEREFOR, HERBICIDAL COMPOSITION AND USE THEREOF” (Qingdao Kingagroot Chemical Compound Co., Ltd., priority 2020, published 2023).

Tests used:
Test in all cases: Weeding effect in post-emergence stage
Assay type in all cases: in vivo
Abutilon theophrasti = settings: for Weeding effect in post-emergence stage, Abutilon theophrasti (level): fresh weight control rate level
In short: (§1)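 Read-out is growth control rate, counted 3 weeks post-spray and averaged over three repeats. Greenhouse plants at the 2-3 leaf stage received spray-tower application at 500, 250, 125, 60, 30, 15 or 7.5 g/ha, with methyl oleate EC (1.5 liter/ha) and Tween 80 added.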

Alopecurus japonicus = settings: for Weeding effect in post-emergence stage, Alopecurus japonicus (level): fresh weight control rate level
In short: as §1

Digitaria sanguinalis = settings: for Weeding effect in post-emergence stage, Digitaria sanguinalis (level): fresh weight control rate level
In short: as §1

Eleusine indica = settings: for Weeding effect in post-emergence stage, Eleusine indica (level): fresh weight control rate level
In short: as §1

Setaria viridis = settings: for Weeding effect in post-emergence stage, Setaria viridis (level): fresh weight control rate level
In short: as §1

Echinochloa crusgalli = settings: for Weeding effect in post-emergence stage, Echinochloa crusgalli (level): fresh weight control rate level
In short: as §1

[1] = Dose 30 g/ha, level of fresh weight growth control rate

| SMILES | Weeding effect in post-emergence stage, Abutilon theophrasti (level) (Abutilon theophrasti; Dose 60 g/ha) | Weeding effect in post-emergence stage, Alopecurus japonicus (level) (Alopecurus japonicus; Dose 60 g/ha) | Weeding effect in post-emergence stage, Digitaria sanguinalis (level) (Digitaria sanguinalis; Dose 60 g/ha) | Weeding effect in post-emergence stage, Eleusine indica (level) (Eleusine indica; Dose 60 g/ha) | Weeding effect in post-emergence stage, Setaria viridis (level) (Setaria viridis; Dose 60 g/ha) | Weeding effect in post-emergence stage, Echinochloa crusgalli (level) (Echinochloa crusgalli; Dose 60 g/ha) | other results |
| --- | --- | --- | --- | --- | --- | --- | --- |
| COC(=O)[C@@H](C)O/N=C/c1cc(-n2c(=O)cc(C(F)(F)F)n(C)c2=S)c(F)cc1Cl [347(R)] |  |  |  |  |  |  | Weeding effect in post-emergence stage, Abutilon theophrasti (Abutilon theophrasti; [1]): 5 (Level 5: growth control rate is above 85%); Weeding effect in post-emergence stage, Alopecurus japonicus (Alopecurus japonicus; [1]): 5 (Level 5: growth control rate is above 85%); Weeding effect in post-emergence stage, Digitaria sanguinalis (Digitaria sanguinalis; [1]): 5 (Level 5: growth control rate is above 85%); Weeding effect in post-emergence stage, Eleusine indica (Eleusine indica; [1]): 5 (Level 5: growth control rate is above 85%); Weeding effect in post-emergence stage, Setaria viridis (Setaria viridis; [1]): 5 (Level 5: growth control rate is above 85%); Weeding effect in post-emergence stage, Echinochloa crusgalli (Echinochloa crusgalli; [1]): 5 (Level 5: growth control rate is above 85%) |
| COC(=O)[C@@H](C)O/N=C/c1cc(-n2c(=S)cc(C(F)(F)F)n(C)c2=S)c(F)cc1Cl [351(R)] | 5 (Level 5: growth control rate is above 85%) | 5 (Level 5: growth control rate is above 85%) | 5 (Level 5: growth control rate is above 85%) | 5 (Level 5: growth control rate is above 85%) | 5 (Level 5: growth control rate is above 85%) | 5 (Level 5: growth control rate is above 85%) |  |
| COC(=O)[C@@H](C)O/N=C/c1cc(-n2c(=S)cc(C(F)(F)F)n(C)c2=O)c(F)cc1Br [388(R)] |  |  |  |  |  |  | Weeding effect in post-emergence stage, Abutilon theophrasti (level) (Abutilon theophrasti; Dose 15 g/ha): 5 (Level 5: growth control rate is above 85%); Weeding effect in post-emergence stage, Alopecurus japonicus (level) (Alopecurus japonicus; Dose 15 g/ha): 5 (Level 5: growth control rate is above 85%); Weeding effect in post-emergence stage, Digitaria sanguinalis (level) (Digitaria sanguinalis; Dose 15 g/ha): 5 (Level 5: growth control rate is above 85%); Weeding effect in post-emergence stage, Eleusine indica (level) (Eleusine indica; Dose 15 g/ha): 5 (Level 5: growth control rate is above 85%); Weeding effect in post-emergence stage, Setaria viridis (level) (Setaria viridis; Dose 15 g/ha): 5 (Level 5: growth control rate is above 85%); Weeding effect in post-emergence stage, Echinochloa crusgalli (level) (Echinochloa crusgalli; Dose 15 g/ha): 5 (Level 5: growth control rate is above 85%) |
| COC(=O)[C@@H](C)O/N=C/c1cc(-n2c(=S)cc(C(F)(F)F)n(C)c2=S)c(F)cc1C#N [390(R)] |  |  |  |  |  |  | Weeding effect in post-emergence stage, Abutilon theophrasti (level) (Abutilon theophrasti; Dose 15 g/ha): 5 (Level 5: growth control rate is above 85%); Weeding effect in post-emergence stage, Alopecurus japonicus (level) (Alopecurus japonicus; Dose 15 g/ha): 5 (Level 5: growth control rate is above 85%); Weeding effect in post-emergence stage, Digitaria sanguinalis (level) (Digitaria sanguinalis; Dose 15 g/ha): 5 (Level 5: growth control rate is above 85%); Weeding effect in post-emergence stage, Eleusine indica (level) (Eleusine indica; Dose 15 g/ha): 5 (Level 5: growth control rate is above 85%); Weeding effect in post-emergence stage, Setaria viridis (level) (Setaria viridis; Dose 15 g/ha): 5 (Level 5: growth control rate is above 85%); Weeding effect in post-emergence stage, Echinochloa crusgalli (level) (Echinochloa crusgalli; Dose 15 g/ha): 5 (Level 5: growth control rate is above 85%) |
| COC(=O)[C@@H](C)O/N=C/c1cc(-n2c(=S)cc(C(F)(F)F)n(C)c2=S)c(F)cc1Br [391(R)] | 5 (Level 5: growth control rate is above 85%) | 5 (Level 5: growth control rate is above 85%) | 5 (Level 5: growth control rate is above 85%) | 5 (Level 5: growth control rate is above 85%) | 5 (Level 5: growth control rate is above 85%) | 5 (Level 5: growth control rate is above 85%) |  |
| COC(=O)[C@@H](C)O/N=C/c1cc(-n2c(=S)cc(C(F)(F)F)n(C)c2=S)c(F)cc1C(F)(F)F [392(R)] | 5 (Level 5: growth control rate is above 85%) | 5 (Level 5: growth control rate is above 85%) | 5 (Level 5: growth control rate is above 85%) | 5 (Level 5: growth control rate is above 85%) | 5 (Level 5: growth control rate is above 85%) | 5 (Level 5: growth control rate is above 85%) |  |
| COC(=O)[C@@H](C)O/N=C/c1cc(-n2c(=S)cc(C(F)(F)F)n(C)c2=S)c(F)cc1C#N [393(R)] | 5 (Level 5: growth control rate is above 85%) | 5 (Level 5: growth control rate is above 85%) | 5 (Level 5: growth control rate is above 85%) | 5 (Level 5: growth control rate is above 85%) | 5 (Level 5: growth control rate is above 85%) | 5 (Level 5: growth control rate is above 85%) |  |
| COC(=O)[C@@H](C)O/N=C/c1cc(-n2c(=O)cc(C(F)(F)F)n(C)c2=S)c(F)cc1Br [394(R)] | 5 (Level 5: growth control rate is above 85%) | 5 (Level 5: growth control rate is above 85%) | 5 (Level 5: growth control rate is above 85%) | 5 (Level 5: growth control rate is above 85%) | 5 (Level 5: growth control rate is above 85%) | 5 (Level 5: growth control rate is above 85%) |  |
